Reference: patent US11051515B2, “3-acyl-benzamides and their use as herbicides” (Bayer Aktiengesellschaft, priority 2017, dated 2021)

Experiments:
[1] = test system: ALOMY; assay: Pre-emergence action against ALOMY; format: in vivo, Alopecurus myosuroides; conditions: dosage 320 g/ha; pre-emergence; scored visually after 3 weeks vs untreated controls; 100% = plants have died, 0% = like control plants
In short: (§1)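 Seeds sown in sandy loam in wood-fiber pots and covered with soil. Greenhouse growth; visual damage scored after 3 weeks versus untreated controls (100% = dead, 0% = like control).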

[2] = test system: AVEFA; assay: Pre-emergence action against AVEFA; format: in vivo, Avena fatua; conditions: dosage 320 g/ha, scored visually after 3 weeks vs untreated controls
Description: (§2) Seeds of monocotyledonous and dicotyledonous weed plants and crop plants are laid out in sandy loam soil in wood-fiber pots and covered with soil. The compounds of the invention, formulated in the form of wettable powders (WP) or as emulsion concentrates (EC), are then applied to the surface of the covering soil in the form of an aqueous suspension or emulsion at a water application rate equating to […], with addition of 0.2% wetting agent. After the treatment, the pots are placed in a greenhouse and kept under good growth conditions for the trial plants. The damage to the test plants is scored visually after a test period of 3 weeks by comparison with untreated controls (herbicidal activity in percent (%): 100% activity=the plants have died, 0% activity=like control plants).

[3] = test system: CYPES; assay: Pre-emergence action against CYPES; format: in vivo, Cyperus esculentus; conditions: pre-emergence, dosage 320 g/ha, scored visually after 3 weeks vs untreated controls
Description: as §2

[4] = test system: ECHCG; assay: Pre-emergence action against ECHCG; format: in vivo, Echinochloa crus-galli; conditions: pre-emergence, dosage 320 g/ha, scored visually after 3 weeks vs untreated controls
In short: as §1

[5] = test system: ABUTH; assay: Pre-emergence action against ABUTH; format: in vivo, Abutilon theophrasti; conditions: pre-emergence, dosage 320 g/ha, scored visually after 3 weeks vs untreated controls
In short: as §1

[6] = test system: AMARE; assay: Pre-emergence action against AMARE; format: in vivo, Amaranthus retroflexus; conditions: pre-emergence, dosage 320 g/ha, scored visually after 3 weeks vs untreated controls
In short: as §1

[7] = test system: MATIN; assay: Pre-emergence action against MATIN; format: in vivo, Matricaria inodora; conditions: Dosage 320 g/ha, pre-emergence
In short: as §1

[8] = test system: POLCO; assay: Pre-emergence action against POLCO; format: in vivo, Polygonum convolvulus; conditions: Dosage 320 g/ha, pre-emergence
Description: as §2

[9] = test system: STEME; assay: Pre-emergence action against STEME; format: in vivo, Stellaria media; conditions: Dosage 320 g/ha, pre-emergence
In short: as §1

[10] = test system: VIOTR; assay: Pre-emergence action against VIOTR; format: in vivo, Viola tricolor; conditions: Dosage 320 g/ha, pre-emergence
In short: as §1

[11] = test system: VERPE; assay: Pre-emergence action against VERPE; format: in vivo, Veronica persica; conditions: Dosage 320 g/ha, pre-emergence
In short: as §1

[12] = test system: CYPES; assay: Post-emergence action against CYPES; format: in vivo, Cyperus esculentus; conditions: post-emergence, dosage 80 g/ha, visual assessment about 3 weeks after treatment vs untreated controls
Procedure: (§3) Seeds of monocotyledonous and dicotyledonous weed and crop plants are laid out in sandy loam soil in wood-fiber pots, covered with soil and cultivated in a greenhouse under good growth conditions. 2 to 3 weeks after sowing, the test plants are treated at the one-leaf stage. The compounds of the invention, formulated in the form of wettable powders (WP) or as emulsion concentrates (EC), are then sprayed onto the green parts of the plants in the form of an aqueous suspension or emulsion at a water application rate equating to […], with addition of 0.2% wetting agent. After the test plants have been left to stand in the greenhouse under optimal growth conditions for about 3 weeks, the action of the preparations is assessed visually in comparison to untreated controls (herbicidal action in percent (%): 100% activity=the plants have died, 0% activity=like control plants). […] At the same time, inventive compounds leave Gramineae crops such as barley, wheat, rye, millet/Sorghum, corn or rice virtually undamaged when applied post-emergence, even at high active ingredient dosages. In addition, some substances are also harmless to dicotyledonous crops such as soya, cotton, oilseed rape, sugar beet or potatoes. Some of the compounds according to the invention have high selectivity and are therefore suitable for controlling unwanted vegetation in agricultural crops by the post-emergence method. The data of Tables B18 to B34 below illustrate, in an exemplary manner, the […] herbicidal action of the compounds according to the invention, the herbicidal activity being stated in percent.

[13] = test system: ECHCG; assay: Post-emergence action against ECHCG; format: in vivo, Echinochloa crus-galli; conditions: post-emergence, dosage 80 g/ha, visual assessment about 3 weeks after treatment vs untreated controls
In short: (§4)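 Weeds grown in sandy loam in greenhouse, treated at one-leaf stage (2–3 weeks after sowing) with WP or EC formulations sprayed as aqueous suspension/emulsion at 600 to […] water with 0.2% wetting agent. Visual rating after about 3 weeks versus untreated controls, as % herbicidal action (100% = plants dead, 0% = like control).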

[14] = test system: SETVI; assay: Post-emergence action against SETVI; format: in vivo, Setaria viridis; conditions: post-emergence, dosage 80 g/ha, visual assessment about 3 weeks after treatment vs untreated controls
Procedure: as §3

[15] = test system: ABUTH; assay: Post-emergence action against ABUTH; format: in vivo, Abutilon theophrasti; conditions: post-emergence, dosage 80 g/ha, visual assessment about 3 weeks after treatment vs untreated controls
In short: as §4

[16] = test system: AMARE; assay: Post-emergence action against AMARE; format: in vivo, Amaranthus retroflexus; conditions: post-emergence, dosage 80 g/ha, visual assessment about 3 weeks after treatment vs untreated controls
In short: as §4

[17] = test system: MATIN; assay: Post-emergence action against MATIN; format: in vivo, Matricaria inodora; conditions: post-emergence, dosage 80 g/ha, visual assessment about 3 weeks after treatment vs untreated controls
In short: as §4

[18] = test system: PHBPU; assay: Post-emergence action against PHBPU; format: in vivo, Pharbitis purpurea; conditions: post-emergence, dosage 80 g/ha
In short: as §4

[19] = test system: STEME; assay: Post-emergence action against STEME; format: in vivo, Stellaria media; conditions: post-emergence, dosage 80 g/ha
In short: as §4

[20] = test system: VIOTR; assay: Post-emergence action against VIOTR; format: in vivo, Viola tricolor; conditions: post-emergence, dosage 80 g/ha
In short: as §4

[21] = test system: VERPE; assay: Post-emergence action against VERPE; format: in vivo, Veronica persica; conditions: dosage 80 g/ha
In short: as §4

[22] = test system: SETVI; assay: Pre-emergence action against SETVI; format: in vivo, Setaria viridis; conditions: pre-emergence, dosage 320 g/ha, scored visually after 3 weeks vs untreated controls
In short: as §1

[23] = test system: PHBPU; assay: Pre-emergence action against PHBPU; format: in vivo, Pharbitis purpurea; conditions: Dosage 320 g/ha, pre-emergence
Description: as §2

[24] = test system: POLCO; assay: Post-emergence action against POLCO; format: in vivo, Polygonum convolvulus; conditions: post-emergence, dosage 80 g/ha
Procedure: as §3

| Compound | Pre-emergence action against ALOMY (herbicidal activity in percent) [1] | Pre-emergence action against AVEFA (herbicidal activity) [2] | Pre-emergence action against CYPES (herbicidal activity) [3] | Pre-emergence action against ECHCG (herbicidal activity) [4] | Pre-emergence action against ABUTH (herbicidal activity) [5] | Pre-emergence action against AMARE (herbicidal activity) [6] | Pre-emergence action against MATIN [7] | Pre-emergence action against STEME [9] | Pre-emergence action against VIOTR [10] | Pre-emergence action against VERPE [11] | Post-emergence action against CYPES (herbicidal action in percent) [12] | Post-emergence action against ECHCG (herbicidal action in percent) [13] | Post-emergence action against SETVI (herbicidal action in percent) [14] | Post-emergence action against ABUTH (herbicidal action in percent) [15] | Post-emergence action against AMARE (herbicidal action in percent) [16] | Post-emergence action against MATIN (herbicidal action in percent) [17] | Post-emergence action against PHBPU [18] | Post-emergence action against STEME [19] | Post-emergence action against VIOTR [20] | Post-emergence action against VERPE [21] | other results |
| --- | --- | --- | --- | --- | --- | --- | --- | --- | --- | --- | --- | --- | --- | --- | --- | --- | --- | --- | --- | --- | --- |
| CCCn1nnnc1NC(=O)c1ccc(C(F)(F)F)c(C(C)=O)c1SC [3-58] | 90% | 80% | 90% | 100% | 100% | 100% | 100% | 90% | 100% | 90% | 100% | 100% | 80% | 100% | 100% | 100% | 90 | 100 | 100 | 80 | Pre-emergence action against POLCO [8]: 80% |
| CCCn1nnnc1NC(=O)c1ccc(C(F)(F)F)c(C(=O)C2CC2)c1OC [3-50] | 100% | 100% | 90% |  | 100% | 100% | 100% | 100% | 100% | 100% | 80% | 100% | 100% | 100% | 100% | 100% | 100 | 100 | 100 | 100 | SETVI (Table B8, pre-emergence herbicidal activity) [22]: 100%; Pre-emergence action against PHBPU [23]: 80% |
| CCCn1nnnc1NC(=O)c1ccc(C(F)(F)F)c(C(=O)C2CC2)c1Br [3-197] | 90% | 90% | 80% | 100% | 100% | 100% | 100% | 100% | 100% | 100% | 90% | 90% | 90% | 90% | 100% | 90% | 100 | 100 | 100 | 80 | SETVI (Table B8, pre-emergence herbicidal activity) [22]: 100%; Pre-emergence action against PHBPU [23]: 90% |
| CCCn1nnnc1NC(=O)c1ccc(I)c(C(C)=O)c1Cl [3-192] | 90% | 90% | 100% | 100% | 100% | 100% | 100% | 100% | 100% |  | 80% | 100% | 100% | 100% | 80% | 100% | 80 | 100 | 100 |  | SETVI (Table B8, pre-emergence herbicidal activity) [22]: 100%; Pre-emergence action against PHBPU [23]: 100% |
| CCCn1nnnc1NC(=O)c1ccc(C(F)(F)F)c(C(C)=O)c1Cl [3-137] | 90% | 80% | 90% | 100% | 100% | 100% | 100% | 100% | 100% | 90% |  | 90% | 100% | 90% | 100% | 100% | 100 | 100 | 100 | 90 | SETVI (Table B8, pre-emergence herbicidal activity) [22]: 90%; Pre-emergence action against PHBPU [23]: 100%; Post-emergence action against POLCO [24]: 90 |
| CCn1nnnc1NC(=O)c1ccc(C)c(C(C)=O)c1Cl [2-134] |  |  |  | 80% |  | 100% | 90% | 90% |  | 100% |  | 90% | 80% |  | 90% | 90% | 80 | 100 | 100 | 90 | Post-emergence action against POLCO [24]: 80 |
